SMILES strings stand for the structures.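 Cultured in 96-well plates, cells were exposed to test compound for 48 hours across five concentrations. Abbreviation: GI50, concentration required for 50% inhibition of growth. TGI: concentration producing complete growth inhibition.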 Some results are limits rather than exact numbers.

The first experiment deals with K-562 leukemia. Description: growth of human tumour cells (NCI), 48 h.
`CC1(C)O/C(=C\c2ccccc2)C(=O)/C(=C/c2ccccc2)O1` yielded a TGI above 100 µM.
For the compound `N=C(N)SCc1cccc(-c2nc3ccccc3c(=O)o2)c1`, the TGI is above 100 µM.
Still for that read-out and setting: under `O=C1CC2C(=O)N(Cc3ccccc3)C1C=C2S(=O)(=O)c1ccccc1` (configuration not stated) stands above 100 µM.
For the compound `COc1ccc(Nc2c3ccccc3nc3occ(Cl)c23)cc1`, the GI50 is below 0.01 µM and the TGI is above 35.1 µM.
Turning to `N.N.N.N.[Cl-].[Co+3].[N-]=[N+]=[N-].[N-]=[N+]=[N-]`, the GI50 is above 100 µM and the TGI was above 100 µM.
`O=C(Nc1cc(Cl)ccc1Cl)C(=O)C(c1cnc2ccccc2n1)[N+](=O)[O-]` (configuration not stated) had a TGI above 100 µM.
In turn, `COC(=O)CCC(=O)CC1CC(=O)C2CCCN12` (configuration not stated) displayed a TGI above 100 µM.
Same read-out and setting: under `COc1ccc(OC)c2c(/C=C/c3ccc(N(C)C)cc3)ccnc12` stands above 10 µM; under `C=C1C(=O)O[C@H]2/C=C(/C)C3=CC(=O)[C@@](C)(C[C@@H](OC(=O)/C(C)=C\C)C12)O3` (some centres not stated), 1.84 µM.
Consider `O=S1OC2(c3ccccc3-c3ccccc32)c2ccccc21` (configuration not stated), for which the TGI was above 100 µM.

The next experiment has as its system M14 melanoma. Description: growth of human tumour cells (NCI), 48 h.
For the compound `COc1cc2ccc3c4cc(OC)c(OC(C)C)cc4cnc3c2cc1OC`, the TGI is above 100 µM.
Same read-out and setting: then `CN1NC(=Nc2ccccc2)Sc2c1cnn(-c1ccccc1)c2=O`, with above 100 µM.
For `CCc1ccccc1NC(=O)c1sc2nc3c(cc2c1N)C(=O)CCC3`, the GI50 was 0.404 µM and the TGI was above 100 µM.
On to `CCOC(=O)c1c[nH]c2oc(/C=N/N3CC(CN4CCOCC4)OC3=O)cc2c1=O` (configuration not stated), for which the TGI was above 100 µM.
Consider `O=C(Nc1ccc(-n2cc(-c3ccncc3)c(-c3ccc(Cl)c(O)c3)n2)cc1)Nc1ccc(Cl)c(C(F)(F)F)c1`, for which the GI50 was 1.43 µM and the TGI was 3.11 µM.
As to `CC(=O)c1sc(-c2nc(C)c(C(=O)/C=C\c3ccc(/C=C\C(=O)c4sc(-c5nc(C)c(C(C)=O)s5)nc4C)cc3)s2)nc1C`, the TGI is above 100 µM.
Still for that read-out and setting: under `COC(=O)/C(C)=C/[N+](=O)[O-]` stands 29.2 µM; under `CC(C)OC(=O)NNc1cc(Cl)ccc1Cl`, above 100 µM; under `CCCCOC(=O)NC(=O)c1cn(CCCOC(=O)NCCCCCCNC(=O)OCCCn2cc(C(=O)NC(=O)OCCCC)c(=O)[nH]c2=O)c(=O)[nH]c1=O`, above 100 µM.
As to `COc1cc(C2=C(c3cn(C)c4ccccc34)COC2=O)cc(OC)c1OC`, the GI50 was 0.0349 µM and the TGI worked out at 1.17 µM.
As to `COc1cc(C)c2c(c1C)OC(=O)c1c(C)c(Cl)c(O)c(C=O)c1O2`, the TGI was 52 µM.
For the compound `COC(=O)/C(C=O)=C/Sc1ccccc1`, the TGI was determined as 42.6 µM.
As for `COc1ccc2c(c1)[C@@]13CCCC[C@H]1[C@@H](C2)N(C)CC3=O`, the TGI came to 31 µM.
The same measure, in the same setting: then `CC1(C)O/C(=C\c2ccccc2)C(=O)/C(=C/c2ccccc2)O1`, with above 100 µM; and `N=C(N)SCc1cccc(-c2nc3ccccc3c(=O)o2)c1`, with above 100 µM.
The same measure, in the same setting: then `O=C1CC2C(=O)N(Cc3ccccc3)C1C=C2S(=O)(=O)c1ccccc1` (configuration not stated), with above 100 µM.
Regarding `COc1ccc(Nc2c3ccccc3nc3occ(Cl)c23)cc1`, the GI50 was 0.0287 µM and the TGI came out at 19.5 µM.
Take `N.N.N.N.[Cl-].[Co+3].[N-]=[N+]=[N-].[N-]=[N+]=[N-]`: the GI50 is above 100 µM and the TGI is above 100 µM.
`CC(C)CCCC(C)[C@H]1CCC2[C@H]3C(CC[C@@]21C)[C@@]1(C)CCC=C[C@]12C[C@@H]2[C@@H]3O` (some centres not stated) displayed a TGI above 100 µM.
Same read-out and setting: then `O=C(Nc1cc(Cl)ccc1Cl)C(=O)C(c1cnc2ccccc2n1)[N+](=O)[O-]` (configuration not stated), with above 100 µM; and `COC(=O)CCC(=O)CC1CC(=O)C2CCCN12` (configuration not stated), with above 100 µM; and `COc1ccc(OC)c2c(/C=C/c3ccc(N(C)C)cc3)ccnc12`, with above 10 µM.
Same read-out and setting: under `C=C1C(=O)O[C@H]2/C=C(/C)C3=CC(=O)[C@@](C)(C[C@@H](OC(=O)/C(C)=C\C)C12)O3` (some centres not stated) stands above 28.8 µM; under `O=S1OC2(c3ccccc3-c3ccccc32)c2ccccc21` (configuration not stated), above 100 µM.
In turn, `CCOC(=N)CC(=O)Nc1cccc(C)c1C` showed a TGI above 100 µM.

A further experiment deals with MOLT-4 leukemia. The experiment in a line: growth of human tumour cells (NCI), 48 h.
In turn, `COc1cc2ccc3c4cc(OC)c(OC(C)C)cc4cnc3c2cc1OC` had a TGI above 100 µM.
In turn, `CN1NC(=Nc2ccccc2)Sc2c1cnn(-c1ccccc1)c2=O` had a TGI above 100 µM.
As to `CCc1ccccc1NC(=O)c1sc2nc3c(cc2c1N)C(=O)CCC3`, the GI50 was 5.29 µM and the TGI is above 100 µM.
`CCOC(=O)c1c[nH]c2oc(/C=N/N3CC(CN4CCOCC4)OC3=O)cc2c1=O` (configuration not stated) came in with a TGI above 100 µM.
Take `O=C(Nc1ccc(-n2cc(-c3ccncc3)c(-c3ccc(Cl)c(O)c3)n2)cc1)Nc1ccc(Cl)c(C(F)(F)F)c1`: the GI50 is 1.14 µM and the TGI turned out to be 6.77 µM.
Regarding `CC(=O)c1sc(-c2nc(C)c(C(=O)/C=C\c3ccc(/C=C\C(=O)c4sc(-c5nc(C)c(C(C)=O)s5)nc4C)cc3)s2)nc1C`, the TGI was above 100 µM.
Still for that read-out and setting: under `COC(=O)/C(C)=C/[N+](=O)[O-]` stands 39.4 µM; under `CC(C)OC(=O)NNc1cc(Cl)ccc1Cl`, above 100 µM.
As to `COc1cc(C2=C(c3cn(C)c4ccccc34)COC2=O)cc(OC)c1OC`, the GI50 was 0.055 µM and the TGI is above 28.2 µM.
`COc1cc(C)c2c(c1C)OC(=O)c1c(C)c(Cl)c(O)c(C=O)c1O2` had a TGI of 32 µM.
`COC(=O)/C(C=O)=C/Sc1ccccc1` had a TGI above 100 µM.
For the compound `COc1ccc2c(c1)[C@@]13CCCC[C@H]1[C@@H](C2)N(C)CC3=O`, the TGI is above 100 µM.
In the case of `CC1(C)O/C(=C\c2ccccc2)C(=O)/C(=C/c2ccccc2)O1`, the TGI was 43.9 µM.
Same read-out and setting: under `O=C1CC2C(=O)N(Cc3ccccc3)C1C=C2S(=O)(=O)c1ccccc1` (configuration not stated) stands above 100 µM.
`COc1ccc(Nc2c3ccccc3nc3occ(Cl)c23)cc1`: the GI50 was 0.0266 µM and the TGI was above 44.5 µM.
Regarding `N.N.N.N.[Cl-].[Co+3].[N-]=[N+]=[N-].[N-]=[N+]=[N-]`, the GI50 is 38.6 µM and the TGI was above 100 µM.
`CC(C)CCCC(C)[C@H]1CCC2[C@H]3C(CC[C@@]21C)[C@@]1(C)CCC=C[C@]12C[C@@H]2[C@@H]3O` (some centres not stated) returned a TGI above 100 µM.
On the same count and under the same terms, under `O=C(Nc1cc(Cl)ccc1Cl)C(=O)C(c1cnc2ccccc2n1)[N+](=O)[O-]` (configuration not stated) stands above 100 µM.
`COC(=O)CCC(=O)CC1CC(=O)C2CCCN12` (configuration not stated) displayed a TGI above 100 µM.
With `COc1ccc(OC)c2c(/C=C/c3ccc(N(C)C)cc3)ccnc12`, the TGI is above 10 µM.
